Our source for the inhibition values is US4180572A, “Lipogenesis control by esters of benzoxazinecarboxylic acids” (Shell Oil Company, priority 1978, dated 1979).

The assay has as its system swine adipose tissue. The experiment in a line: Inhibition of lipogenesis (lipid synthesis from glucose-U-14C) in swine adipose tissue slices. The assay is classed as cell-based. Particulars: Sus scrofa, 100 micrograms per milliliter, 37° C., 2 hours, glucose-U14C, insulin, 5% DMSO, triplicate, read-out: Percent Inhibition (of lipogenesis compared to control). The text has this: The manner in which they cause this effect is not known with certainty; it is believed that they interfere with the synthesis of fatty acids in the tissue. Their effectiveness for this purpose has been ascertained by immersing samples of swine adipose tissue in a liquid medium containing radioactive glucose and the test chemical for a period of time, then isolating the lipid from the treated tissue and determining the up-take of the radioactive carbon by means of scintillation counting techniques. These tests were conducted in swine adipose tissue because in swine the primary site of lipogenesis--i.e., fatty acid synthesis--appearsto be adipose tissue. […] 150 milligrams of slices of swine adipose tissue were incubated at 37° C. for 2 hours with shaking in 3 milliliters of Krebs-Ringer bicarbonate solution containing one-half the normal calcium ion concentration, 60 micromoles of glucose, 0.5 microCurie of glucose-U^14 C, and 300 microunits of insulin, and 5% dimethyl sulfoxide (DMSO). The test compounds were added as a solution or suspension in DMSO and were present at a concentration of 100 micrograms per milliliter of the incubation mixture. The incubation was terminated by addition of 0.25 milliliter of 1 N sulfuric acid. The resulting mixture was extracted with a total of 25 milliliters of chloroform:methanol (2:1, v/v). The extracts were washed according to Folch et al. (J. Biol. […] The tests were conducted in triplicate and were accompanied by control tests in which all ingredients,proportions and conditions were the same except that no test compound was included. From the data obtained were calculated the percent inhibition of lipid synthesis by the test compound in each case. The data obtained from the tests were set out in Table I, as the percent inhibition of lipogenesis compared to the results obtained in the control tests wherein only the test compound was omitted.

The structures appear in SMILES notation. Where a name gives a salt, the structure may show the parent alone.

As a reminder, the inhibition is the drop in the measured response relative to a control, in per cent.

With `CCOC(=O)C1CN(Cc2ccccc2)c2ccccc2O1` (stereo not drawn) [Compound 1, Ethyl 3,4-dihydro-4-benzyl-2H-1,4-benzoxazine-2-carboxylate], the inhibition at 100 µg/mL was determined as 53%.

`CCOC(=O)C1CNc2ccccc2O1` (stereo not drawn) [Compound 1A, 3,4-dihydro-2H-1,4-benzoxazine-2-carboxylic acid ethyl ester hydrochloride]: the inhibition at 100 µg/mL was determined as 62%.

In the case of `CCOC(=O)C1CNc2cc(Cl)ccc2O1` (stereo not drawn) [Compound 2, Ethyl 6-chloro-3,4-dihydro-2H-1,4-benzoxazine-2-carboxylate], the inhibition at 100 µg/mL was found to be 28%.

For the compound `CCOC(=O)C1CNc2cc(C)ccc2O1` (stereo not drawn) [Compound 3, Ethyl 6-methyl-3,4-dihydro-2H-1,4-benzoxazine-2-carboxylate hydrochloride], the inhibition at 100 µg/mL is 18%.

As to `CCOC(=O)C1CNc2cc([N+](=O)[O-])ccc2O1` (stereo not drawn) [Compound 4, ethyl 6-nitro-3,4-dihydro-2H-1,4-benzoxazine-2-carboxylate], the inhibition at 100 µg/mL was 74%.

With `CCOC(=O)C1CNc2cc(N)ccc2O1` (stereo not drawn) [Compound 5, ethyl 6-amino-3,4-dihydro-2H-1,4-benzoxazine-2-carboxylate hydrochloride], the inhibition at 100 µg/mL turned out to be 43%.

Take `CCOC(=O)C1CNc2cc(NS(C)(=O)=O)ccc2O1` (stereo not drawn) [Compound 6, ethyl 3,4-dihydro-6-((methylsulfonyl)amino)-2H-1,4-benzoxazine-2-carboxylate]: the inhibition at 100 µg/mL amounted to 76%.

Turning to `CCOC(=O)C1CNc2cc(C(F)(F)F)ccc2O1` (stereo not drawn) [Compound 7, ethyl 6-(trifluoromethyl)-3,4-dihydro-2H-1,4-benzoxazine-2-carboxylate], the inhibition at 100 µg/mL came to 31%.

`CCOC(=O)C1CNc2cc(OC)ccc2O1` (stereo not drawn) [Compound 8, ethyl 6-methoxy-2,3-dihydro-2H-1,4-benzoxazine-2-carboxylate]: the inhibition at 100 µg/mL came out at 81%.

With `CCOC(=O)C1CNc2cc(Cl)c(Cl)cc2O1` (stereo not drawn) [Compound 9, ethyl 6,7-dichloro-2,3-dihydro-2H-1,4-benzoxazine-2-carboxylate], the inhibition at 100 µg/mL worked out at 56%.

In the case of `CCOC(=O)C1CNc2ccc(C)cc2O1` (stereo not drawn) [Compound 10, ethyl 7-methyl-3,4-dihydro-2H-1,4-benzoxazine-2-carboxylate], the inhibition at 100 µg/mL came out at 54%.

As to `CCOC(=O)C1CNc2cc([N+](=O)[O-])cc(Cl)c2O1` (stereo not drawn) [Compound 11, ethyl 8-chloro-6-nitro-3,4-dihydro-2H-1,4-benzoxazine-2-carboxylate], the inhibition at 100 µg/mL turned out to be 31%.

For `CCOC(=O)C1CNc2cccc(Cl)c2O1` (stereo not drawn) [Compound 12, ethyl 8-chloro-3,4-dihydro-2H-1,4-benzoxazine-2-carboxylate], the inhibition at 100 µg/mL was determined as 39%.

`CCOC(=O)C1CNc2cc(-c3ccccc3)ccc2O1` (stereo not drawn) [Compound 13, ethyl 6-phenyl-3,4-dihydro-2H-1,4-benzoxazine-2-carboxylate]: the inhibition at 100 µg/mL is 34%.

Consider `CCOC(=O)C1CNc2ccc([N+](=O)[O-])cc2O1` (stereo not drawn) [Compound 14, ethyl 7-nitro-3,4-dihydro-2H-1,4-benzoxazine-2-carboxylate], for which the inhibition at 100 µg/mL came out at 92%.
